Patent US20150105252A1, “SUBSTITUTED PYRAZOLES AS HERBICIDES” (E I DU PONT DE NEMOURS AND COMPANY, priority 2013, published 2015)

What was measured:
sedge, umbrella = assay: Test B flood; type: in vivo, Cyperus difformis; settings: 250 g ai/ha, visual rating on 0 to 100 scale (0 no effect, 100 complete control), 13 to 15 days
Procedure, shortened: (§1)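 Response scored visually, 0–100 relative to controls, 13–15 days after the compound was applied into paddy water; plants were at the 2-leaf stage in pots kept flooded to 3 cm.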

pigweed [1] = assay: Test A postemergence; type: in vivo, Amaranthus retroflexus
Procedure, shortened: (§2)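 Greenhouse test in loam soil/sand blend; compounds formulated in non-phytotoxic solvent with surfactant, applied as preemergence directed soil spray or postemergence to plants 2–10 cm tall at one- to two-leaf stage. Injury rated visually versus untreated controls after approximately 10 days on a 0 (no effect) to 100 (complete control) scale.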

barnyardgrass [2] = assay: Test A postemergence; type: in vivo, Echinochloa crus-galli
Procedure, shortened: as §2

ducksalad = assay: Test B flood; type: in vivo, Heteranthera limosa; settings: 250 g ai/ha, visual rating on 0 to 100 scale (0 no effect, 100 complete control), 13 to 15 days
Procedure, shortened: as §1

velvetleaf [3] = assay: Test A preemergence; type: in vivo, Abutilon theophrasti; settings: preemergence; for Velvetleaf plant response rating (0 to 100 scale): 125 g ai/ha, visual injury approx. 10 days after treatment; for Velvetleaf plant response rating: 500 g ai/ha, visual injury after approx. 10 days, 0 to 100 scale (0 no effect, 100 complete control)
Procedure, shortened: as §2

morningglory [4] = assay: Test A postemergence; type: in vivo, Ipomoea spp.
Procedure, shortened: as §2

foxtail, giant [5] = assay: Test A postemergence; type: in vivo, Setaria faberii
Procedure, shortened: as §2

morningglory [6] = assay: Test A preemergence; type: in vivo, Ipomoea spp.; settings: preemergence; for Morningglory plant response rating (0 to 100 scale): 125 g ai/ha, visual injury approx. 10 days after treatment; for Morningglory plant response rating: 500 g ai/ha, visual injury after approx. 10 days, 0 to 100 scale (0 no effect, 100 complete control)
Procedure, shortened: as §2

rice = assay: Test B flood; type: in vivo, Oryza sativa; settings: 250 g ai/ha, visual rating on 0 to 100 scale (0 no effect, 100 complete control), 13 to 15 days
Procedure, shortened: as §1

velvetleaf [7] = assay: Test A postemergence; type: in vivo, Abutilon theophrasti
Procedure, shortened: as §2

corn [8] = assay: Test A preemergence; type: in vivo, Zea mays; settings: preemergence; for Corn plant response rating (0 to 100 scale): 125 g ai/ha, visual injury approx. 10 days after treatment; for Corn plant response rating: 500 g ai/ha, visual injury after approx. 10 days, 0 to 100 scale (0 no effect, 100 complete control)
Procedure, shortened: as §2

wheat [9] = assay: Test A preemergence; type: in vivo, Triticum aestivum; settings: preemergence; for Wheat plant response rating (0 to 100 scale): 125 g ai/ha, visual injury approx. 10 days after treatment; for Wheat plant response rating: 500 g ai/ha, visual injury after approx. 10 days, 0 to 100 scale (0 no effect, 100 complete control)
Procedure, shortened: as §2

foxtail, giant [10] = assay: Test A preemergence; type: in vivo, Setaria faberii; settings: preemergence; for Foxtail, Giant plant response rating (0 to 100 scale): 125 g ai/ha, visual injury approx. 10 days after treatment; for Foxtail, Giant plant response rating: 500 g ai/ha, visual injury after approx. 10 days, 0 to 100 scale (0 no effect, 100 complete control)
Procedure, shortened: as §2

pigweed [11] = assay: Test A preemergence; type: in vivo, Amaranthus retroflexus; settings: preemergence; for Pigweed plant response rating (0 to 100 scale): 125 g ai/ha, visual injury approx. 10 days after treatment; for Pigweed plant response rating: 500 g ai/ha, visual injury after approx. 10 days, 0 to 100 scale (0 no effect, 100 complete control)
Procedure, shortened: as §2

wheat [12] = assay: Test A postemergence; type: in vivo, Triticum aestivum
Procedure, shortened: as §2

crabgrass, large [13] = assay: Test A preemergence; type: in vivo, Digitaria sanguinalis; settings: preemergence; for Crabgrass, Large plant response rating (0 to 100 scale): 125 g ai/ha, visual injury approx. 10 days after treatment; for Crabgrass, Large plant response rating: 500 g ai/ha, visual injury after approx. 10 days, 0 to 100 scale (0 no effect, 100 complete control)
Procedure, shortened: as §2

barnyardgrass [14] = assay: Test A preemergence; type: in vivo, Echinochloa crus-galli; settings: preemergence
Procedure, shortened: as §2

barnyardgrass [15] = assay: Test B flood; type: in vivo, Echinochloa crus-galli; settings: 250 g ai/ha, visual rating on 0 to 100 scale (0 no effect, 100 complete control), 13 to 15 days
Procedure, shortened: as §1

corn [16] = assay: Test A postemergence; type: in vivo, Zea mays
Procedure, shortened: as §2

crabgrass, large [17] = assay: Test A postemergence; type: in vivo, Digitaria sanguinalis
Procedure, shortened: as §2

[18] = Postemergence, 500 g ai/ha, 0 to 100 scale (0 no effect, 100 complete control)
[19] = postemergence, 125 g ai/ha, about 10 days, visual rating on 0 to 100 scale (0 no effect, 100 complete control)
[20] = 125 g ai/ha, visual injury, 0 to 100 scale, approx. 10 days
[21] = 500 g ai/ha, visual injury after approx. 10 days, 0 to 100 scale (0 no effect, 100 complete control)

SMILES	Plant response rating, Sedge, Umbrella (sedge, umbrella)	Pigweed plant response rating (pigweed [1]; [18])	Pigweed plant response rating (pigweed [1]; [19])	Barnyardgrass plant response rating (barnyardgrass [2]; [18])	Barnyardgrass plant response rating (barnyardgrass [2]; [19])	Plant response rating, Ducksalad (ducksalad)	Velvetleaf plant response rating (0 to 100 scale) (velvetleaf [3])	Velvetleaf plant response rating (velvetleaf [3])	Morningglory plant response rating (morningglory [4]; [18])	Morningglory plant response rating (morningglory [4]; [19])	Foxtail, Giant plant response rating (foxtail, giant [5]; [18])	Foxtail, Giant plant response rating (foxtail, giant [5]; [19])	Morningglory plant response rating (0 to 100 scale) (morningglory [6])	Morningglory plant response rating (morningglory [6])	Plant response rating, Rice (rice)	Velvetleaf plant response rating (velvetleaf [7]; [18])	Velvetleaf plant response rating (velvetleaf [7]; [19])	Corn plant response rating (0 to 100 scale) (corn [8])	Corn plant response rating (corn [8])	Wheat plant response rating (0 to 100 scale) (wheat [9])	further results
CCCNC(=O)c1cc(Br)n(Cc2cccc(C(F)(F)F)c2)n1 [Compound 159]	0	60	50	30	0	0	0	0	40	30	30	20	0	0	0	70	60	0	0	0	Wheat plant response rating (wheat [9]): 0; Foxtail, Giant plant response rating (0 to 100 scale) (foxtail, giant [10]): 0; Foxtail, Giant plant response rating (foxtail, giant [10]): 30; Pigweed plant response rating (0 to 100 scale) (pigweed [11]): 10; Pigweed plant response rating (pigweed [11]): 60; Wheat plant response rating (wheat [12]; [18]): 20; Wheat plant response rating (wheat [12]; [19]): 0; Crabgrass, Large plant response rating (0 to 100 scale) (crabgrass, large [13]): 10; Crabgrass, Large plant response rating (crabgrass, large [13]): 90; Barnyardgrass plant response rating (barnyardgrass [14]; [20]): 0; Barnyardgrass plant response rating (barnyardgrass [14]; [21]): 20; Plant response rating, Barnyardgrass (barnyardgrass [15]): 0; Corn plant response rating (corn [16]; [18]): 20; Corn plant response rating (corn [16]; [19]): 10; Crabgrass, Large plant response rating (crabgrass, large [17]; [18]): 30; Crabgrass, Large plant response rating (crabgrass, large [17]; [19]): 20
O=C(NCC(F)(F)F)c1cc(Br)n(Cc2cccc(C(F)(F)F)c2)n1 [Compound 161]	0	70	40	10	10	0	0	0	50	30	20	10	0	0	0	50	30	0	0	0	Wheat plant response rating (wheat [9]): 0; Foxtail, Giant plant response rating (0 to 100 scale) (foxtail, giant [10]): 0; Foxtail, Giant plant response rating (foxtail, giant [10]): 20; Pigweed plant response rating (0 to 100 scale) (pigweed [11]): 10; Pigweed plant response rating (pigweed [11]): 80; Wheat plant response rating (wheat [12]; [18]): 0; Wheat plant response rating (wheat [12]; [19]): 0; Crabgrass, Large plant response rating (0 to 100 scale) (crabgrass, large [13]): 10; Crabgrass, Large plant response rating (crabgrass, large [13]): 70; Barnyardgrass plant response rating (barnyardgrass [14]; [20]): 0; Barnyardgrass plant response rating (barnyardgrass [14]; [21]): 0; Plant response rating, Barnyardgrass (barnyardgrass [15]): 0; Corn plant response rating (corn [16]; [18]): 10; Corn plant response rating (corn [16]; [19]): 0; Crabgrass, Large plant response rating (crabgrass, large [17]; [18]): 30; Crabgrass, Large plant response rating (crabgrass, large [17]; [19]): 20
CCCCNC(=O)c1cc(Br)n(Cc2cccc(C(F)(F)F)c2)n1 [Compound 162]	0	60	40	20	0	0	0	0	40	20	20	10	0	0	0	40	0	0	0	0	Wheat plant response rating (wheat [9]): 0; Foxtail, Giant plant response rating (0 to 100 scale) (foxtail, giant [10]): 0; Foxtail, Giant plant response rating (foxtail, giant [10]): 60; Pigweed plant response rating (0 to 100 scale) (pigweed [11]): 0; Pigweed plant response rating (pigweed [11]): 0; Wheat plant response rating (wheat [12]; [18]): 0; Wheat plant response rating (wheat [12]; [19]): 0; Crabgrass, Large plant response rating (0 to 100 scale) (crabgrass, large [13]): 0; Crabgrass, Large plant response rating (crabgrass, large [13]): 30; Barnyardgrass plant response rating (barnyardgrass [14]; [20]): 0; Barnyardgrass plant response rating (barnyardgrass [14]; [21]): 0; Plant response rating, Barnyardgrass (barnyardgrass [15]): 0; Corn plant response rating (corn [16]; [18]): 20; Corn plant response rating (corn [16]; [19]): 10; Crabgrass, Large plant response rating (crabgrass, large [17]; [18]): 20; Crabgrass, Large plant response rating (crabgrass, large [17]; [19]): 10
COCc1cc(C(=O)NC(C)C)nn1Cc1ccnc(C(F)(F)F)c1 [Compound 166]	80	100	10	90	30	85	60	100	100	100	70	50	100	100	10	60	40	10	90	10	Wheat plant response rating (wheat [9]): 90; Foxtail, Giant plant response rating (0 to 100 scale) (foxtail, giant [10]): 100; Foxtail, Giant plant response rating (foxtail, giant [10]): 100; Pigweed plant response rating (0 to 100 scale) (pigweed [11]): 100; Pigweed plant response rating (pigweed [11]): 100; Wheat plant response rating (wheat [12]; [18]): 50; Wheat plant response rating (wheat [12]; [19]): 0; Crabgrass, Large plant response rating (0 to 100 scale) (crabgrass, large [13]): 100; Crabgrass, Large plant response rating (crabgrass, large [13]): 100; Barnyardgrass plant response rating (barnyardgrass [14]; [20]): 50; Barnyardgrass plant response rating (barnyardgrass [14]; [21]): 100; Plant response rating, Barnyardgrass (barnyardgrass [15]): 10; Corn plant response rating (corn [16]; [18]): 80; Corn plant response rating (corn [16]; [19]): 30; Crabgrass, Large plant response rating (crabgrass, large [17]; [18]): 80; Crabgrass, Large plant response rating (crabgrass, large [17]; [19]): 40
COCc1cc(C(=O)NC2CC2)nn1Cc1ccnc(C(F)(F)F)c1 [Compound 167]	70	100	70	80	20	80	30	100	100	80	90	40	50	100	20	60	30	0	40	0	Wheat plant response rating (wheat [9]): 50; Foxtail, Giant plant response rating (0 to 100 scale) (foxtail, giant [10]): 90; Foxtail, Giant plant response rating (foxtail, giant [10]): 100; Pigweed plant response rating (0 to 100 scale) (pigweed [11]): 100; Pigweed plant response rating (pigweed [11]): 100; Wheat plant response rating (wheat [12]; [18]): 30; Wheat plant response rating (wheat [12]; [19]): 0; Crabgrass, Large plant response rating (0 to 100 scale) (crabgrass, large [13]): 80; Crabgrass, Large plant response rating (crabgrass, large [13]): 100; Barnyardgrass plant response rating (barnyardgrass [14]; [20]): 30; Barnyardgrass plant response rating (barnyardgrass [14]; [21]): 100; Plant response rating, Barnyardgrass (barnyardgrass [15]): 20; Corn plant response rating (corn [16]; [18]): 70; Corn plant response rating (corn [16]; [19]): 10; Crabgrass, Large plant response rating (crabgrass, large [17]; [18]): 80; Crabgrass, Large plant response rating (crabgrass, large [17]; [19]): 20
